The record followed here is patent US5830770A, “Hapten-protein conjugates for use in detection of organophosphorus compounds” (priority 1993, dated 1998).

SMILES strings stand for the structures. Where two headings read alike, the source gives them in different places.

In one assay the test system is antisera from rabbit 19. It is filed as binding. On the set-up: key: +++: strong; ++: medium; +: weak reaction; poor: slight; -: none. To be noted: antisera 1:2000, 2 hours at 25° C. How it is done: (§1) An ELISA was used to screen the antisera for polyclonal antibodies to the generic hapten/conjugate of the invention using the following protocol. Microtitre plates (Costar) were coated with the appropriate hapten conjugate with ovalbumin by diluting that in 0.05M sodium hydrogen carbonate/sodium carbonate buffer (pH 9.6) to give an optimum protein concentration of 1 μg/ml previously determined by chequerboard titration; protein found by Bradford assay. 100 μl was added to each microtitre plate well and the plates placed in a moist chamber overnight, washed 3 times with 0.15 phosphate buffered saline pH7.2 with 0.05% Tween 20[RTM]: PBST), and blotted dry. Blocking was carried out by adding 250 μl per well of 5% skimmed milk for 1 hour at 25° C.
(§2) After two further washings the coated microplates were stored at -20° C. until required, whereon they were washed once with PBST. Antisera were diluted (1/1000 for general screening or doubling dilutions up to 1/512,000 for titration assays) in PSBT, applied to microtitre wells in triplicate in 50 μl amounts and incubated in a moist chamber at 25° C. for 1 hour (appropriate positive and negative controls were included--PBST, negative rabbit serum and positive serum when it had been produced). Wells were then washed 3 times in PBST and 200 μl of a 1:1500 dilution of swine anti-rabbit immunoglobulin conjugated to horseradish peroxidase (DAKO) was added to each well. Plates were incubated once more for 1 hour at 25° C. then washed 3 times with PBST.
(§3) Tetramethylbenzidine (TMB) enzyme substrate solution was prepared by adding 400 μl of 6.0 g/l TMB in DMSO to 24.5 ml of 0.1M sodium acetate buffer pH5.5 with 100 μl of 1% H2 O2 and 100 μl added to the wells. The microplates were incubated for 15 minutes in the dark at 25° C. before the reaction was stopped by adding 50 μl of 2.5M H2 SO4 and the absorbance read at 450 nm against air. Results: are given below with those of Example 6.
(§4) Assay was carried out in the same manner as Example 5 with the following modifications. Antisera was diluted 1:2000 with 1% BSA in PBST and 100 μl was incubated for 2 hours at 25° C. with 100 μl of each concentration of the unconjugated OP--in this case the generic part--in a microtitration plate. Concentrations of OP ranged from 200 to 0.001 μg ml^-1.
(§5) Cross reactivity of antisera from rabbits 19, 20 and 21 by inhibition ELISA with the various organophosphorus pesticides is shown in Table 5 in which concentration (μg ml^-1) for 50% inhibition to occur is given together with the diluent in which this is achieved--PBST or % methanol in PBST for figures.

The next assay relates to antisera from rabbit 21. In kind it is binding. On the set-up: key: +++: strong; ++: medium; +: weak reaction; poor: slight; -: none. To be noted: antisera 1:2000, 2 hours at 25° C. As to the method: as §1, §2, §3, §4, §5
For a further assay, the system named is antisera from rabbit 20. It is filed as binding. To be noted: for cross reactivity by inhibition ELISA, Rabbit 20: antisera 1:2000, 2 hours at 25° C.; for concentration for 50% inhibition: Rabbit 20. On the set-up: key to cross reactivity by inhibition ELISA, Rabbit 20: +++: strong; ++: medium; +: weak reaction; poor: slight; -: none. How it is done:
as §1, §2, §3, §4, §5

The next assay concerns generic antibodies. The experiment in a line: Relative inhibition of binding of generic antibodies to hapten conjugate. On the set-up: species or system rabbit. To be noted: inhibition at 100 μg/ml minus inhibition at 0.1 μg/ml organophosphate. How it is done:
as §4

For `CCOP(=O)(OCC)OC(=CCl)c1ccc(Cl)cc1Cl` [Chlorfenvinphos, chlorfenvinphos], in the assay with antisera from rabbit 19, the “cross reactivity by inhibition ELISA, Rabbit 19” value is given as “-”. The “cross reactivity by inhibition ELISA, Rabbit 21” value in the assay with antisera from rabbit 21 is “+”. Moreover, the “cross reactivity by inhibition ELISA, Rabbit 20” value in the assay with antisera from rabbit 20 was “+”. For the same molecule, in the assay with generic antibodies, the “Relative inhibition of binding of generic antibodies to hapten conjugate as % of hapten + spacer inhibition” value was 33.4%.
In the case of `COP(=S)(OC)Oc1nc(Cl)c(Cl)cc1Cl` [Chlorpyrifos-methyl], the “cross reactivity by inhibition ELISA, Rabbit 19” value in the assay with antisera from rabbit 19 is reported as “poor”. Further, the “cross reactivity by inhibition ELISA, Rabbit 21” value in the assay on antisera from rabbit 21 is “poor”. The “cross reactivity by inhibition ELISA, Rabbit 20” value in the assay with antisera from rabbit 20 is recorded as “poor”. For the same molecule, the “Relative inhibition of binding of generic antibodies to hapten conjugate as % of hapten + spacer inhibition” value in the assay with generic antibodies came out at 29.2%.
With `COP(=O)(OC)OC=C(Cl)Cl` [Dichlorvos, dichlorvos], the “cross reactivity by inhibition ELISA, Rabbit 19” value with antisera from rabbit 19 is “++”. Further, the “cross reactivity by inhibition ELISA, Rabbit 21” value in the assay with antisera from rabbit 21 is given as “+”. The “concentration for 50% inhibition” value with antisera from rabbit 20 (diluent PBST) turned out to be 91.1 µg/mL. In addition, the “cross reactivity by inhibition ELISA, Rabbit 20” value in the assay on antisera from rabbit 20 is recorded as “++”. Moreover, in the assay with generic antibodies, the “Relative inhibition of binding of generic antibodies to hapten conjugate as % of hapten + spacer inhibition” value is 60.0%.
Turning to `CNC(=O)CSP(=S)(OC)OC` [Dimethoate, dimethoate], in the assay on antisera from rabbit 19, the “cross reactivity by inhibition ELISA, Rabbit 19” value is given as “-”. In addition, the “cross reactivity by inhibition ELISA, Rabbit 21” value in the assay with antisera from rabbit 21 was “+”. Moreover, the “concentration for 50% inhibition” value with antisera from rabbit 20 (diluent 10% methanol in PBST) is more than 150 µg/mL. The “cross reactivity by inhibition ELISA, Rabbit 20” value with antisera from rabbit 20 is “++”. For the same molecule, the “Relative inhibition of binding of generic antibodies to hapten conjugate as % of hapten + spacer inhibition” value with generic antibodies was 41.4%.
In the case of `CCOc1cc(OP(=S)(OC)OC)nc(CC)n1` [Etrimfos, etrimfos], the “cross reactivity by inhibition ELISA, Rabbit 19” value in the assay with antisera from rabbit 19 was “-”. Moreover, the “cross reactivity by inhibition ELISA, Rabbit 21” value in the assay with antisera from rabbit 21 is recorded as “poor”. Also, the “cross reactivity by inhibition ELISA, Rabbit 20” value with antisera from rabbit 20 was “+”. The “Relative inhibition of binding of generic antibodies to hapten conjugate as % of hapten + spacer inhibition” value in the assay on generic antibodies was 30.8%.
Consider `COP(=S)(OC)Oc1ccc([N+](=O)[O-])c(C)c1` [Fenitrothion, fenitrothion], for which the “cross reactivity by inhibition ELISA, Rabbit 19” value in the assay with antisera from rabbit 19 is “+”. In the assay with antisera from rabbit 21, the “cross reactivity by inhibition ELISA, Rabbit 21” value was “+”. In the assay with antisera from rabbit 20 (diluent 10% methanol in PBST), the “concentration for 50% inhibition” value came out at 4.8 µg/mL. Moreover, the “cross reactivity by inhibition ELISA, Rabbit 20” value with antisera from rabbit 20 was “+++”. The “Relative inhibition of binding of generic antibodies to hapten conjugate as % of hapten + spacer inhibition” value with generic antibodies is reported as 90.1%.
`O=C(O)CNCP(=O)(O)O` [Glyphospate]: the “cross reactivity by inhibition ELISA, Rabbit 19” value in the assay with antisera from rabbit 19 is “-”. For the same molecule, in the assay on antisera from rabbit 21, the “cross reactivity by inhibition ELISA, Rabbit 21” value is listed as “-”. Besides, the “cross reactivity by inhibition ELISA, Rabbit 20” value in the assay with antisera from rabbit 20 is on record as “-”.
As for `COP(=S)(OC)OCCCCO` [Hapten + spacer, (CH3 O)2 P(S)--O--(CH2)4 --OH], the “cross reactivity by inhibition ELISA, Rabbit 19” value in the assay with antisera from rabbit 19 is reported as “+++”. In addition, in the assay with antisera from rabbit 21, the “cross reactivity by inhibition ELISA, Rabbit 21” value is on record as “+++”. Besides, in the assay on antisera from rabbit 20 (diluent PBST), the “concentration for 50% inhibition” value worked out at 3.0 µg/mL. The “cross reactivity by inhibition ELISA, Rabbit 20” value in the assay with antisera from rabbit 20 is “+++”. For the same molecule, the “Relative inhibition of binding of generic antibodies to hapten conjugate as % of hapten + spacer inhibition” value in the assay with generic antibodies turned out to be 100.0%.
Consider `CCOC(=O)CC(SP(=S)(OC)OC)C(=O)OCC` (stereo not drawn) [Malathion, malathion], for which, in the assay on antisera from rabbit 19, the “cross reactivity by inhibition ELISA, Rabbit 19” value was “-”. Besides, the “cross reactivity by inhibition ELISA, Rabbit 21” value with antisera from rabbit 21 is listed as “-”. The “cross reactivity by inhibition ELISA, Rabbit 20” value with antisera from rabbit 20 is recorded as “+”. Moreover, in the assay with generic antibodies, the “Relative inhibition of binding of generic antibodies to hapten conjugate as % of hapten + spacer inhibition” value was found to be 38.6%.
On to `COC(=O)/C(C)=C/OP(=S)(OC)OC` [Methacrifos, methacrifos], for which, in the assay with antisera from rabbit 19, the “cross reactivity by inhibition ELISA, Rabbit 19” value is given as “+”. Further, the “cross reactivity by inhibition ELISA, Rabbit 21” value with antisera from rabbit 21 is listed as “+”. Also, the “concentration for 50% inhibition” value in the assay with antisera from rabbit 20 (diluent PBST) amounted to 8.2 µg/mL. In the assay on antisera from rabbit 20, the “cross reactivity by inhibition ELISA, Rabbit 20” value is listed as “+++”. Further, the “Relative inhibition of binding of generic antibodies to hapten conjugate as % of hapten + spacer inhibition” value in the assay with generic antibodies was found to be 89.1%.
Regarding `CCN(CC)c1nc(C)cc(OP(=S)(OC)OC)n1` [Pirimiphos-methyl, pirimiphos-methyl], the “cross reactivity by inhibition ELISA, Rabbit 19” value in the assay with antisera from rabbit 19 is reported as “-”. Further, the “cross reactivity by inhibition ELISA, Rabbit 21” value in the assay with antisera from rabbit 21 is recorded as “-”. In the assay with antisera from rabbit 20, the “cross reactivity by inhibition ELISA, Rabbit 20” value is on record as “poor”. Moreover, the “Relative inhibition of binding of generic antibodies to hapten conjugate as % of hapten + spacer inhibition” value in the assay with generic antibodies was determined as 21.1%.
As for `CCNP(=S)(OC)O/C(C)=C/C(=O)OC(C)C` (stereo not drawn) [Propetamphos, propetamphos], the “cross reactivity by inhibition ELISA, Rabbit 19” value in the assay on antisera from rabbit 19 is “+”. Further, the “cross reactivity by inhibition ELISA, Rabbit 21” value in the assay on antisera from rabbit 21 was “++”. Further, in the assay with antisera from rabbit 20 (diluent 10% methanol in PBST), the “concentration for 50% inhibition” value worked out at 36.2 µg/mL. Besides, in the assay with antisera from rabbit 20, the “cross reactivity by inhibition ELISA, Rabbit 20” value is “+++”. For the same molecule, in the assay on generic antibodies, the “Relative inhibition of binding of generic antibodies to hapten conjugate as % of hapten + spacer inhibition” value is reported as 75.9%.
Take `OCCCCO` [Spacer, 1,4 butanediol]: the “cross reactivity by inhibition ELISA, Rabbit 19” value in the assay with antisera from rabbit 19 is “-”. Further, in the assay on antisera from rabbit 21, the “cross reactivity by inhibition ELISA, Rabbit 21” value is reported as “-”. The “cross reactivity by inhibition ELISA, Rabbit 20” value in the assay on antisera from rabbit 20 was “-”.
Turning to `COP(=O)(OC)O/C(=C\Cl)c1cc(Cl)c(Cl)cc1Cl` [Tetrachlorvinphos, tetrachlorvinphos], the “cross reactivity by inhibition ELISA, Rabbit 19” value with antisera from rabbit 19 is “-”. The “cross reactivity by inhibition ELISA, Rabbit 21” value in the assay on antisera from rabbit 21 is recorded as “poor”. Further, the “cross reactivity by inhibition ELISA, Rabbit 20” value in the assay with antisera from rabbit 20 was “poor”. The “Relative inhibition of binding of generic antibodies to hapten conjugate as % of hapten + spacer inhibition” value in the assay with generic antibodies is recorded as 27.2%.
